Measured values as given in patent US20220184222A1, “BICYCLE TOXIN CONJUGATES AND USES THEREOF” (BicycleTx Limited, priority 2019, published 2022).
Starred links: 1 amine or outer side, 2 acyl side, 3 side chain; linkers in the order of their positions; H or OH if unused. Non-standard residues stand in square brackets, D forms with d. Residues, ends and D or L forms follow the SMILES beside them. *: point of attachment. Dolaproine = CO[C@@H]([C@@H]1CCCN1)[C@@H](C)C(=O)O; Dil = CC[C@H](C)[C@H](NC)[C@@H](CC(=O)O)OC; PABC = O=C(OCc1ccc(N[*:1])cc1)[*:2]; X1 = O=C(CCCC(=O)*)ON1C(=O)CCC1=O; X2 = C[C@@H](N*)[C@@H](O)c1ccccc1; Cit = NC(=O)NCCC[C@H](N)C(=O)O; NMeV = CN[C@H](C(=O)O)C(C)C

Assays:
CTG-0178 = experiment: Champions TumorGraft NSCLC PDX efficacy, model CTG-0178; format: in vivo, Mus musculus
Description: (§1) Mice were implanted subcutaneously into the left flank with tumor fragments from one of the various models. After tumors grew to an average of 150-300 mm^3, mice were treated by IV administration Q7Dx4 (n=2) with vehicle or 3 mg/kg of BT5528. Effects on tumor growth were evaluated by measuring percent tumor growth inhibition (% TGI), and the number of complete responders (CR), partial responders (PR), and tumor-free survivors (TFS). Tolerability was assessed by body weight loss, lethality, and clinical signs of adverse treatment-related side effects. Tumor volumes and body weights were measured twice a week.
(§2) Dosing solutions of BT5528 […] were pre-formulated. These dosing solutions were stored at −80° C. in the dark. On each day of dosing, a frozen aliquot of each test agent was thawed, stored at 2-8° C. and used for dosing.
(§3) The animals used in this study are described below: • Species: Mus musculus • Strain: Athymic Nude-Foxn1^nu (immune-compromised) • Source: Envigo (Indianapolis, Ind., USA) • Number of animals per group: 2 • Age and sex: At least 6-8 weeks of age at start of dosing, female • Weight: At least 18 grams at start of dosing • Acclimation period: 3 days
(§4) Stock mice were implanted with tumor cells from Champions TumorGraft® models CTG-0160, CTG-0170, CTG-0178, CTG-0192, CTG-0363, CTG-0808, CTG-0838, CTG-0848, CTG-1212, CTG-1502, CTG-1535, CTG-2011, CTG-2393, CTG-2539 or CTG-2540. After the tumors reached 1000-1500 mm^3, they were harvested and the tumor fragments (approximately 5×5×5 mm^3) were implanted SC in the left flank of the female study mice. Each animal was implanted with a specific passage lot and documented. Tumor growth was monitored twice a week using digital calipers and the tumor volume (TV) was calculated using the formula (0.52×[length×width^2]). When the TV reached an average volume of 150-300 mm^3, animals were matched by tumor size and assigned into Vehicle Control and treatment groups (n=2/group) and dosing was initiated on Day 0. After the initiation of dosing on Day 0, animals were weighed twice per week using a digital scale and TV was measured twice per week and also on the final day of study. The study was completed when the mean tumor volume of Vehicle Control reached 1500 mm^3 or up to Day 60, whichever occurred first.
(§5) Beginning on Day 0, animals were observed daily and weighed twice weekly using a digital scale; data including individual and mean gram weights, mean percent weight change versus Day 0 (% vD0) were recorded for each group and % vD0 plotted at study completion. […] Treatment resulting in a mean % vD0>20% and/or >10% mortality was considered above the maximum tolerated dose. Maximum mean % vD0 (weight nadir) for each treatment group was reported at study completion.
(§6) Inhibition of tumor growth was determined by calculating the percent TGI (100%×[1−(final MTV−initial MTV of a treated group)/(final MTV−initial MTV of the control group)]). Treatment started on Day 0.
(§7) Additional endpoints used to evaluate efficacy were: the number of complete responders (CR), partial responders (PR), and tumor-free survivors (TFS). PRs were considered exclusive of CRs, as were TFS.
(§8) Statistical analyses of anti-tumor efficacy were performed using one-way ANOVA followed by Dunnett's multiple comparisons test (GraphPad Prism version 8.2.0). Significant p-values=<0.05.
Animals were dosed according to the schedule on Table 7-1. The study was terminated on Day 28.

CTG-1212 = experiment: Champions TumorGraft NSCLC PDX efficacy, model CTG-1212; format: in vivo, Mus musculus
Description: as §1, §2, §3, §4, §5, §6, §7, §8
Animals were dosed according to the schedule on Table 7-1. The study was terminated on Day 27.

Panc033 = experiment: PDAC PDX Panc033 xenograft efficacy (Example 5); format: in vivo, NSG mice; details: 3 mg/kg intravenously weekly, 4-week treatment period
Description: BT5528 and Vehicle were prepared as described in the examples above, and tested in treatment of Pancreatic Ductal Adenocarcinoma (PDAC) in PDX models. PDX models effectively capture patient responses to oncology therapy in a heterogeneous cohort of patients with solid tumors with 80-100% correlation between the PDX and patient response (Izumchenko et al. 2017)
Pancreatic ductal adenocarcinoma patient derived xenograft tumors (PDAC PDX; Panc033 and Panc163) were implanted subcutaneously from source tumors into the flank of NSG mice. Tumor bearing animals were randomized to receive intravenously a weekly dosing of vehicle or 3 mg/kg BT5528. Tumor sizes were monitored by caliper measurements.

[1] = CTG-0178, 3 mg/kg IV Q7Dx4, Day 0-28
[2] = CTG-1212, 3 mg/kg IV Q7Dx4, Day 0-27

CC[C@H](C)[C@@H]([C@@H](CC(=O)N1CCC[C@H]1[C@H](OC)[C@@H](C)C(=O)N[C@H](C)[C@@H](O)c1ccccc1)OC)N(C)C(=O)[C@@H](NC(=O)[C@H](C(C)C)N(C)C(=O)OCc1ccc(NC(=O)[C@H](CCCNC(N)=O)NC(=O)[C@@H](NC(=O)CCCC(=O)ON2C(=O)CCC2=O)C(C)C)cc1)C(C)C [BT5528] (X1-V[Cit][PABC][NMeV]V[Dil][Dolaproine]-X2)
mean body weight loss (CTG-0178; 3 mg/kg IV Q7Dx4): minor mean body weight losses on Day 18 | MTV (mean tumor volume) (CTG-0178; 3 mg/kg IV Q7Dx4, Day 28): 1145±271 mm^3 | TGI (CTG-0178; 3 mg/kg IV Q7Dx4, Day 28): 16% | # CR (complete responders) (CTG-0178; [1]): 0/0/0 | # PR (partial responders) (CTG-0178; [1]): 0/0/0 | # TFS (tumor-free survivors) (CTG-0178; [1]): 0/0/0 | % TGI (CTG-0178; CTG-0178, 3 mg/kg IV Q7Dx4, Day 28): 16% | Day 28 Tumor Volume Mean TV ± SEM (CTG-0178; CTG-0178, BT5528 3 mg/kg IV Q7Dx4, Day 28, n=2): 1145 ± 271 mm^3 | mean body weight loss (CTG-1212; 3 mg/kg IV Q7Dx4): minor mean body weight losses | MTV (mean tumor volume) (CTG-1212; 3 mg/kg IV Q7Dx4, Day 27): 128±53 mm^3 | TGI (CTG-1212; 3 mg/kg IV Q7Dx4, Day 27): 112% | # CR (complete responders) (CTG-1212; [2]): 0/0/0 | # PR (partial responders) (CTG-1212; [2]): 0/0/0 | # TFS (tumor-free survivors) (CTG-1212; [2]): 0/0/0 | % TGI (CTG-1212; CTG-1212, 3 mg/kg IV Q7Dx4, Day 27): 112% | Day 27 Tumor Volume Mean TV ± SEM (CTG-1212; CTG-1212, BT5528 3 mg/kg IV Q7Dx4, Day 27, n=2): 128 ± 53 mm^3 | anti-tumor activity (tumor size by caliper) (Panc033): significant anti-tumor activity from reduced tumor growth rate to decreasing tumor volumes
